Test system: human iPSC
Test: gene targeting (mThy1, mCD147) in hiPSC transiently transfected with Cas9-IRES-anti-apoptotic gene plasmids
Format: cell-based
Procedure: FIGS. 4A-D. Bcl-2 overexpression increases HR-mediated gene targeting in human iPSC when transiently transfected with the Cas9 nuclease. FIG. 4A. Mouse Thy1 gene targeting scheme. FIG. 4B. Plasmids were constructed to constitutively express Cas9 together with an anti-apoptotic gene (separated by an IRES) under the constitutively active EF1α promoter. Plain human iPSC were nucleofected with 0.5 μg of one of these Cas9 plasmids together with 2 μg of the mThy1 targeting vector and 1.5 μg of plasmids expressing the Thy1 Left, Right, both, or no sgRNAs (pUC19). Five days later, cells were analyzed by flow cytometry. FIG. 4C. Flow cytometry staining for mThy1 and hThy1 for the Cas9 only sample gated on live single cells; the percent of cells in each quadrant is indicated. […] FIG. 4D. Compiled gene editing frequencies. The percent of mThy1^+hThy1^− (bottom portion of each bar in the left, center, and right grafts), mThy1^+hThy1^+ (top portion of bars in the left and center graphs), and mThy1^−hThy1^− (top portion of bars in the right graph) cells is graphed for each indicated sample. Lines mark the percentages for the Cas9 only sample. Results are representative of two independent experiments.
FIGS. 8A-F. Wild type Bcl-2 improves gene targeting at various genomic loci across multiple hiPSC lines. FIG. 8A. Plasmids were constructed to constitutively express the Cas9 nuclease with a form of Bcl-2 (separated by an IRES), and a sgRNA. Three human iPSC lines were nucleofected with 2 μg of mThy1 or mCD147 targeting vector and 2 μg of “Cas9 sgRNA” or “Cas9 Bcl-2 sgRNA” expression plasmid. 5-9 days later, cells were analyzed by flow cytometry. FIG. 8B. Mouse Thy1 gene targeting scheme. FIG. 8C. Single amino acid mutations were generated for the Bcl-2 BH1 (G145A) or BH4 (Y28A) domains. Compiled gene editing frequencies for cells transfected with the Left, Right, or Both Thy1 sgRNAs. The percent of mThy1^+hThy1^− (bottom portion of each set of bars in each graph), mThy1^+hThy1^+ (top portion of left and center sets of bars in each graph and center portion of right set of bars in each graph), and mThy1^−hThy1^− (top portion of right set of bars in each graph) cells among the various samples is indicated. FIG. 8D. Mouse CD147 gene targeting scheme. FIG. 8E. Flow cytometry staining for mCD147 and hCD147 for retrovirally-derived PGP1 hiPSC transfected with “Cas9 sgRNA” or “Cas9 Bcl-2 sgRNA”. Samples are gated on live single cells; the percent of cells in each quadrant is indicated. FIG. 8F. Compiled gene editing frequencies for cells transfected with the Left, Right, or both CD147 sgRNAs. The percent of mCD147^+hCD147^− (bottom portion of each set of bars in each graph), mCD147^+hCD147^+ (top portion of left and center sets of bars in each graph and center portion of right set of bars in each graph), and mCD147^−hCD147^− (top portion of right set of bars in each graph) cells among the three hiPSC lines is indicated.
PCR reactions were done using polymerase sold under the trademark KAPA HIFI™ HotStart polymerase; primers and double-stranded DNA fragments sold under the trademark GBLOCKS® are from IDT. Plasmids were constructed using isothermal assembly, transformed into Stbl3 competent E. coli (Invitrogen), grown at 30° C., and verified by Sanger sequencing (Genewiz). Anti-apoptotic genes were obtained from previously published plasmids: Bcl-2 (Addgene plasmid #8793) and Bcl-xL (#8790) (Cheng et al., 2001); Bcl2A1 (#36973) (Pratt et al., 2012); and Mcl-1 (#21605) (Maurer et al., 2006). The dominant negative p53 sequence from Addgene plasmid #9058 (Hahn et al., 2002) was synthesized as a gBlock. These genes were cloned into the EF1α promoter-Cas9 nuclease plasmid after an IRES.
The U6 promoter-sgRNA (for each sgRNA sequence) was cloned into the EF1α promoter-Cas9 nuclease or EF1α promoter-Cas9 nuclease-IRES-Bcl-2 expression plasmids to form the “Cas9 only sgRNA” or “Cas9 Bcl-2 sgRNA” plasmids used in Examples 6 and 7. […]

“Bcl-2: B cell lymphoma 2 protein, anti-apoptotic, overexpressed from lentivirus or Cas9 plasmid” was tested, and the “gene targeting at the CD147 and Thy1 loci” value (Bcl-2 on the Cas9 plasmid, PGP4 hiPSC line) was “markedly improved gene targeting”, the “mCD147 gene targeting frequencies” value (Bcl-2 on the Cas9 plasmid, retroviral and non-integrating PGP1 hiPSC lines) was “substantially and reproducibly increased gene targeting frequencies” and the “mThy1 gene targeting, wild type vs mutant Bcl-2” value (Cas9 Bcl-2 sgRNA plasmids, transient transfection) was “greatest enhancement”. For the same substance, the “mThy1 gene targeting frequencies compared to Cas9 only controls” value (transient transfection of Cas9-IRES-anti-apoptotic factor plasmid) was “the only anti-apoptotic factor that increased gene targeting frequencies”.

Source: patent US11459586B2, “Methods for increasing efficiency of nuclease-mediated gene editing in stem cells” (President and Fellows of Harvard College, priority 2016, dated 2022)
